± gives the expanded uncertainty stated by the source.
Assay: xn = mol fraction of the nth substance listed
Details: Liquid, Vibrating tube method

CCCCCCCCCC [decane] + O=C=O
Details	mass density [kg/m3]
352.78 K, 12025 kPa, x2 = 0.0551	697.67 ± 0.59
352.78 K, 13009 kPa, x2 = 0.0551	698.59 ± 0.59
352.78 K, 14003 kPa, x2 = 0.0551	699.6 ± 0.59
352.78 K, 15017 kPa, x2 = 0.0551	700.5 ± 0.6
352.78 K, 16009 kPa, x2 = 0.0551	701.58 ± 0.6
352.78 K, 17043 kPa, x2 = 0.0551	702.49 ± 0.61
352.78 K, 18011 kPa, x2 = 0.0551	703.38 ± 0.62
352.78 K, 18999 kPa, x2 = 0.0551	704.26 ± 0.62
352.78 K, 19980 kPa, x2 = 0.0551	705.14 ± 0.63
352.78 K, 21012 kPa, x2 = 0.0551	706.06 ± 0.63
352.78 K, 22017 kPa, x2 = 0.0551	706.96 ± 0.64
352.78 K, 23034 kPa, x2 = 0.0551	707.84 ± 0.64
352.78 K, 24044 kPa, x2 = 0.0551	708.75 ± 0.65
352.78 K, 24991 kPa, x2 = 0.0551	709.57 ± 0.65
352.79 K, 6023 kPa, x2 = 0.2369	695.17 ± 0.52
352.79 K, 7016 kPa, x2 = 0.2369	696.39 ± 0.53
352.79 K, 8017 kPa, x2 = 0.2369	697.7 ± 0.53
352.79 K, 9014 kPa, x2 = 0.2369	698.95 ± 0.54
352.79 K, 10006 kPa, x2 = 0.2369	700.1 ± 0.54
352.79 K, 11019 kPa, x2 = 0.2369	701.32 ± 0.55
352.79 K, 12015 kPa, x2 = 0.2369	702.48 ± 0.55
352.79 K, 13014 kPa, x2 = 0.2369	703.71 ± 0.56
352.79 K, 14010 kPa, x2 = 0.2369	704.77 ± 0.56
352.79 K, 15002 kPa, x2 = 0.2369	705.93 ± 0.57
352.79 K, 16000 kPa, x2 = 0.2369	707.03 ± 0.57
352.79 K, 17020 kPa, x2 = 0.2369	708.08 ± 0.58
352.79 K, 18006 kPa, x2 = 0.2369	709.15 ± 0.58
352.79 K, 19014 kPa, x2 = 0.2369	710.21 ± 0.59
352.79 K, 19955 kPa, x2 = 0.2369	711.22 ± 0.59
352.79 K, 21069 kPa, x2 = 0.2369	712.3 ± 0.6
352.79 K, 22042 kPa, x2 = 0.2369	713.3 ± 0.6
352.79 K, 23032 kPa, x2 = 0.2369	714.28 ± 0.61
352.79 K, 24057 kPa, x2 = 0.2369	715.33 ± 0.61
352.79 K, 24999 kPa, x2 = 0.2369	716.29 ± 0.62
352.8 K, 8029 kPa, x2 = 0.4536	702.49 ± 0.5
352.8 K, 9011 kPa, x2 = 0.4536	704.17 ± 0.5
352.8 K, 10022 kPa, x2 = 0.4536	705.86 ± 0.51
352.8 K, 11012 kPa, x2 = 0.4536	707.47 ± 0.51
352.8 K, 12018 kPa, x2 = 0.4536	709.07 ± 0.65
352.8 K, 13013 kPa, x2 = 0.4536	710.62 ± 0.52
352.8 K, 14019 kPa, x2 = 0.4536	712.14 ± 0.53
352.8 K, 15017 kPa, x2 = 0.4536	713.63 ± 0.53
352.8 K, 16008 kPa, x2 = 0.4536	715.06 ± 0.54
352.8 K, 17028 kPa, x2 = 0.4536	716.51 ± 0.54
352.8 K, 18018 kPa, x2 = 0.4536	717.9 ± 0.55
352.8 K, 19024 kPa, x2 = 0.4536	719.28 ± 0.55
352.8 K, 20015 kPa, x2 = 0.4536	720.6 ± 0.56
352.8 K, 21003 kPa, x2 = 0.4536	721.91 ± 0.56
352.8 K, 22029 kPa, x2 = 0.4536	723.29 ± 0.57
352.8 K, 23006 kPa, x2 = 0.4536	724.51 ± 0.57
352.8 K, 24025 kPa, x2 = 0.4536	725.86 ± 0.58
352.8 K, 25013 kPa, x2 = 0.4536	727.09 ± 0.58
362.63 K, 15022 kPa, x2 = 0.8114	681.16 ± 1.2
362.63 K, 16023 kPa, x2 = 0.8114	688.18 ± 0.72
362.63 K, 17027 kPa, x2 = 0.8114	694.15 ± 0.68
362.63 K, 18027 kPa, x2 = 0.8114	699.67 ± 0.66
362.63 K, 19028 kPa, x2 = 0.8114	704.83 ± 0.64
362.63 K, 20026 kPa, x2 = 0.8114	709.67 ± 0.62
362.63 K, 21017 kPa, x2 = 0.8114	714.17 ± 0.61
362.63 K, 22023 kPa, x2 = 0.8114	718.48 ± 0.6
362.63 K, 23019 kPa, x2 = 0.8114	722.51 ± 0.6
362.63 K, 24030 kPa, x2 = 0.8114	726.42 ± 0.59
362.63 K, 25024 kPa, x2 = 0.8114	730.11 ± 0.74
362.65 K, 5978 kPa, x2 = 0.2369	686.43 ± 0.52
362.65 K, 7016 kPa, x2 = 0.2369	687.86 ± 0.53
362.65 K, 8020 kPa, x2 = 0.2369	689.21 ± 0.53
362.65 K, 9035 kPa, x2 = 0.2369	690.58 ± 0.54
362.65 K, 10044 kPa, x2 = 0.2369	691.88 ± 0.54
362.65 K, 11011 kPa, x2 = 0.2369	693.13 ± 0.55
362.65 K, 12005 kPa, x2 = 0.2369	694.38 ± 0.55
362.65 K, 13039 kPa, x2 = 0.2369	695.64 ± 0.56
362.65 K, 14013 kPa, x2 = 0.2369	696.82 ± 0.56
362.65 K, 15072 kPa, x2 = 0.2369	698.07 ± 0.57
362.65 K, 15510 kPa, x2 = 0.9663	452.61 ± 0.96
362.65 K, 16012 kPa, x2 = 0.2369	699.18 ± 0.57
362.65 K, 16012 kPa, x2 = 0.9663	471.04 ± 0.95
362.65 K, 17007 kPa, x2 = 0.9663	504.42 ± 0.94
362.65 K, 17009 kPa, x2 = 0.2369	700.33 ± 0.58
362.65 K, 18008 kPa, x2 = 0.2369	701.44 ± 0.58
362.65 K, 18010 kPa, x2 = 0.9663	534.34 ± 0.89
362.65 K, 19013 kPa, x2 = 0.9663	561.23 ± 0.84
362.65 K, 19020 kPa, x2 = 0.2369	702.57 ± 0.59
362.65 K, 20006 kPa, x2 = 0.2369	703.64 ± 0.59
362.65 K, 20015 kPa, x2 = 0.9663	585.01 ± 0.8
362.65 K, 21029 kPa, x2 = 0.9663	606.13 ± 0.77
362.65 K, 21068 kPa, x2 = 0.2369	704.82 ± 0.6
362.65 K, 22007 kPa, x2 = 0.2369	705.81 ± 0.61
362.65 K, 22007 kPa, x2 = 0.9663	624.31 ± 0.74
362.65 K, 23022 kPa, x2 = 0.9663	641.03 ± 0.72
362.65 K, 23055 kPa, x2 = 0.2369	706.93 ± 0.61
362.65 K, 24015 kPa, x2 = 0.9663	655.59 ± 0.7
362.65 K, 24030 kPa, x2 = 0.2369	707.95 ± 0.62
362.65 K, 25028 kPa, x2 = 0.9663	669.28 ± 0.69
362.65 K, 25056 kPa, x2 = 0.2369	709.02 ± 0.62
362.66 K, 2031 kPa, x2 = 0.0551	678.97 ± 0.54
362.66 K, 3029 kPa, x2 = 0.0551	680.17 ± 0.55
362.66 K, 4134 kPa, x2 = 0.0551	681.5 ± 0.55
362.66 K, 5034 kPa, x2 = 0.0551	682.58 ± 0.55
362.66 K, 6050 kPa, x2 = 0.0551	683.77 ± 0.56
362.66 K, 7045 kPa, x2 = 0.0551	684.91 ± 0.56
362.66 K, 8030 kPa, x2 = 0.0551	686.02 ± 0.57
362.66 K, 9020 kPa, x2 = 0.0551	687.12 ± 0.57
362.66 K, 9024 kPa, x2 = 0.4536	693.68 ± 0.51
362.66 K, 10012 kPa, x2 = 0.4536	695.47 ± 0.51
362.66 K, 10044 kPa, x2 = 0.0551	688.25 ± 0.58
362.66 K, 11025 kPa, x2 = 0.0551	689.34 ± 0.58
362.66 K, 11031 kPa, x2 = 0.4536	697.25 ± 0.52
362.66 K, 11987 kPa, x2 = 0.0551	690.35 ± 0.59
362.66 K, 12002 kPa, x2 = 0.4536	698.93 ± 0.52
362.66 K, 13025 kPa, x2 = 0.0551	691.46 ± 0.59
362.66 K, 13028 kPa, x2 = 0.4536	700.66 ± 0.53
362.66 K, 14008 kPa, x2 = 0.4536	702.25 ± 0.53
362.66 K, 14075 kPa, x2 = 0.0551	692.5 ± 0.6
362.66 K, 15024 kPa, x2 = 0.4536	703.87 ± 0.54
362.66 K, 15026 kPa, x2 = 0.0551	693.52 ± 0.6
362.66 K, 16000 kPa, x2 = 0.4536	705.42 ± 0.54
362.66 K, 16020 kPa, x2 = 0.0551	694.47 ± 0.61
362.66 K, 17003 kPa, x2 = 0.0551	695.45 ± 0.61
362.66 K, 17017 kPa, x2 = 0.4536	706.96 ± 0.55
362.66 K, 18002 kPa, x2 = 0.4536	708.44 ± 0.55
362.66 K, 18032 kPa, x2 = 0.0551	696.46 ± 0.62
362.66 K, 19030 kPa, x2 = 0.0551	697.38 ± 0.62
362.66 K, 19030 kPa, x2 = 0.4536	709.94 ± 0.56
362.66 K, 19998 kPa, x2 = 0.0551	698.32 ± 0.63
362.66 K, 20001 kPa, x2 = 0.4536	711.37 ± 0.56
362.66 K, 21029 kPa, x2 = 0.4536	712.8 ± 0.57
362.66 K, 21052 kPa, x2 = 0.0551	699.32 ± 0.63
362.66 K, 22014 kPa, x2 = 0.4536	714.18 ± 0.57
362.66 K, 22028 kPa, x2 = 0.0551	700.22 ± 0.64
362.66 K, 22996 kPa, x2 = 0.0551	701.1 ± 0.65
362.66 K, 23024 kPa, x2 = 0.4536	715.57 ± 0.58
362.66 K, 24006 kPa, x2 = 0.4536	716.91 ± 0.58
362.66 K, 24036 kPa, x2 = 0.0551	702.1 ± 0.65
362.66 K, 25008 kPa, x2 = 0.0551	702.93 ± 0.66
362.66 K, 25025 kPa, x2 = 0.4536	718.29 ± 0.59

— the NIST ThermoML archive (doi:10.1021/je050020m)
